Experimental data taken from article PMC12275138, “Identification of glycosylated flavonoids as new physiological ligands of the hazel allergen Cor a 1: Complex structures reveal different binding orientation and specificity of mono- and disaccharide derivatives” (Food Chemistry: X, 2025).

How the values were obtained:
Cor a 1.0101 = molecular target: T1, Cor a 1.0101 (Corylus avellana, UniProt Q08407); assay: 1H, […] HSQC screening; assay type: binding; details: 60 µM protein, at least 5-fold ligand excess, pH 7.5
T1 construct: recombinant from E. coli, 15N labelled
T1 sequence (Q08407 2-160): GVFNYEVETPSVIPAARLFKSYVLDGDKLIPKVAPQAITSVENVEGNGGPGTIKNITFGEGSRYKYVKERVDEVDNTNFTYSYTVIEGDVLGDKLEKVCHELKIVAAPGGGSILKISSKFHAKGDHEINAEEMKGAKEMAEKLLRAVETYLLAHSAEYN

Cor a 1.0302 = molecular target: T2, Cor a 1.0302 (Corylus avellana, UniProt A0AA49EHN2); assay: 1H, […] HSQC screening; assay type: binding; details: 60 µM protein, at least 5-fold ligand excess, pH 7.5
T2 construct: recombinant from E. coli, 15N labelled
T2 sequence (A0AA49EHN2 1-159): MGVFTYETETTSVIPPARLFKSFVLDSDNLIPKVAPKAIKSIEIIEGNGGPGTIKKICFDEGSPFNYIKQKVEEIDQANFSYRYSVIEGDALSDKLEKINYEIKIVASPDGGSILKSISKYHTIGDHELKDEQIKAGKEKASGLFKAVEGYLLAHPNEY

| Compound | 1H,15N HSQC screening (Cor a 1.0101) | 1H,15N HSQC screening (Cor a 1.0302) |
| --- | --- | --- |
| C[C@@H]1O[C@@H](Oc2c(-c3ccc(O)cc3)oc3cc(O)cc(O)c3c2=O)[C@H](O)[C@H](O)[C@H]1O [K3OR] | All the other isoallergens bound to Q3OGlc, Q3OGal, and K3OR. | – |
| O=c1c(O[C@@H]2O[C@H](CO)[C@@H](O)[C@H](O)[C@H]2O)c(-c2ccc(O)c(O)c2)oc2cc(O)cc(O)c12 [Q3OGlc] | All the other isoallergens bound to Q3OGlc, Q3OGal, and K3OR. | All the other isoallergens bound to Q3OGlc, Q3OGal, and K3OR. |
